Test results: the NIST ThermoML archive (doi:10.1016/j.jct.2016.06.032)
± gives the expanded uncertainty stated by the source.

What was measured:
[1] = Molar enthalpy of transition or fusion; settings: Crystal; DSC
[2] = Crystal; DTA

N#Cc1ccccc1-c1ccc(CBr)cc1 [4'-(bromomethyl)-2-cyanobiphenyl]
Molar enthalpy of transition or fusion [1]: 7 ± 0.454 kcal/mol
Normal melting temperature [2]: 125.90 ± 1.1 °C
